Paper PMC6383986, “Fragment-Based Covalent Ligand Screening Enables Rapid Discovery of Inhibitors for the RBR E3 Ubiquitin Ligase HOIP” (Journal of the American Chemical Society, 2019)

Experiments:
ALDH6A1 = target: T1, ALDH6A1 (Homo sapiens, UniProt Q02252); assay: ABPP quantitative MS, MCF7; assay type: cell-based; settings: 30 μM (11a) 7 h vs DMSO, then 3 μM (15) 2 h
T1 construct: endogenous in cells; host or cells: HEK293T (A21); MCF7 (A27)
Description: (§1) control and cells treated with control compounds (11i) and (17) at 30 µM). HOIP RBR wild type […]
(§2) nm, indicating low to no labelling by (11a), and a dominant signal from the 800 channel (green).
(§3) C = HOIP RBR control (0.5 µg).
(§4) 5.2 Activity-based protein profiling – Enrichment and LC-MS
(§5) Cell culture and transfection, compound treatment, ha rvest and lysis
(§6) HEK293T cells were cultured and transfected as describ ed in section 4.8 above. MCF7 cells were seeded in 100 mm Petri dishes at 6 × 10^5 cells/dish and cultured overnight at 37 °C as described in section 4.8 above. Both cell types were treated with inhibitor (11a) (30 µM final concentration) or DMSO as described above, incubating for 7 h at 37 °C, followed by addition of clickable probe (15) (3 µM final concentration) and incubation for an additional 2 h. The cells were then harvested and lysed (50 mM Tris-HCl, pH 7.5, 1.5 mM MgCl2, 150 mM NaCl, 5% glycerol, 0.8% v/v IGEPAL-CA630, 25 mM NaF, 1 mM Na3VO4, complete protease inhibitor), and the protein concentration was determined by the BCA assay as described in section 4.7 above.
(§7) Enrichment of TCO-labelled proteins
(§8) Similar to a previously described protocol,22 tetrazine beads were generated by incubating high capacity neutravidin beads (500 µL; Thermo Scientific) with 0.1 µmol tetrazine-PEG4-biotin (Jena Bioscience) in PBS buffer over night at 4 °C, followed by blocking with 5 µL 100 mM biotin in DMSO for 30 minutes at 4 °C. The beads were washed 3× with buffer (50 mM Tris-HCl pH 7.4, 5% glycerol, 1.5 mM MgCl2, 150 mM NaCl, 1 mM Na3VO3, 5 mM NaF) supplemented with 0.4% IGEPAL CA-630 and adjusted to a 5% v/v slurry.
(§9) Lysate with a protein concentration of approx. 2 mg/mL (500 µL) were added to the TCO beads (35 µL) on a 96-well filter plate (Porvair, Dunn #240002) and incubated at 4°C for 2 h. After incubation, beads were washed using a vacuum manifold with 5 mL wash buffer 1 (WB1) (50 mM […]
(§10) (50 mM HEPES pH 8.5, 2 M urea), and 5 mL WB4 (50 mM HEPES pH 8.5). Proteins were then eluted by on bead digestion: 60 µL elution buffer (50 mM HEPES pH 8.5, 5 mM Tris-(2-carboxyethyl)phosphine, 15 mM chloroacetamide, 0.004 µg LysC/ µL (Wako chemicals), 0.004 µg trypsin/µL (Promega)) were added to the washed beads and incubated over night at room temperature. Eluates were collected by centrifugation, beads incubated with an additional 60 µL WB4, eluted and both eluates were combined and lyophilized. […]
(§11) proportional to the number of ions; this measure is referred to as ion area.24 Spectra matching to peptides were filtered according to the following criteria: mascot ion score >15, signal-to-background of the precursor ion >4, and signal -to-interference >0.5. Fold-changes were corrected for isotope purity and adjusted for interference caused by co-eluting nearly isobaric peaks.25 Protein quantification was derived from individual spectra matching to distinct peptides by using a sum-based bootstrap algorithm; 95% confidence intervals were calculated for all protein fold-changes that were quantified with more than three spectra.23 Relative protein abundance s were generated on the basis of MS1 abundances .26 Briefly, XIC peaks were matched to identified peptides. […] These values were then summed, and the mean was calculated.
(§12) In cases where fewer than 3 sequences were associated, the mean was calculated using XIC intensities from either one or two sequences.
(§13) Proteins were filtered for >1 quantified spectra matches (qusm). Residual binding was calculated […]

SRBD1 = target: T2, SRBD1 (Homo sapiens, UniProt Q8N5C6); assay: ABPP quantitative MS, MCF7; assay type: cell-based; settings: 30 μM (11a) 7 h vs DMSO, then 3 μM (15) 2 h
T2 construct: endogenous in cells; host or cells: MCF7
Description: as §1, §2, §3, §4, §5, §6, §7, §8, §9, §10, §11, §12, §13

SMG9 = target: T3, SMG9 (Homo sapiens, UniProt Q9H0W8); assay: ABPP quantitative MS, MCF7; assay type: cell-based; settings: 30 μM (11a) 7 h vs DMSO, then 3 μM (15) 2 h
T3 construct: endogenous in cells; host or cells: MCF7
Description: as §1, §2, §3, §4, §5, §6, §7, §8, §9, §10, §11, §12, §13

GCLC = target: T4, GCLC (Homo sapiens, UniProt P48506); assay: ABPP quantitative MS, MCF7; assay type: cell-based; settings: 30 μM (11a) 7 h vs DMSO, then 3 μM (15) 2 h
T4 construct: endogenous in cells; host or cells: MCF7
Description: as §1, §2, §3, §4, §5, §6, §7, §8, §9, §10, §11, §12, §13

DHX36 = target: T5, DHX36 (Homo sapiens, UniProt Q9H2U1); assay: ABPP quantitative MS, MCF7; assay type: cell-based; settings: 30 μM (11a) 7 h vs DMSO, then 3 μM (15) 2 h
T5 construct: endogenous in cells; host or cells: MCF7
Description: as §1, §2, §3, §4, §5, §6, §7, §8, §9, §10, §11, §12, §13

IRAK4 = target: T6, IRAK4 (Homo sapiens, UniProt Q9NWZ3); assay: IMAP-FP IRAK4 substrate phosphorylation assay; assay type: biochemical
T6 construct: recombinant full length IRAK4-FLAG; His6 (with the rest of the FlagHisAvi vector tag) (C, cleaved yes); made in house; host or cells: Sf9 insect cells (baculovirus)
T6 sequence (Q9NWZ3 whole entry): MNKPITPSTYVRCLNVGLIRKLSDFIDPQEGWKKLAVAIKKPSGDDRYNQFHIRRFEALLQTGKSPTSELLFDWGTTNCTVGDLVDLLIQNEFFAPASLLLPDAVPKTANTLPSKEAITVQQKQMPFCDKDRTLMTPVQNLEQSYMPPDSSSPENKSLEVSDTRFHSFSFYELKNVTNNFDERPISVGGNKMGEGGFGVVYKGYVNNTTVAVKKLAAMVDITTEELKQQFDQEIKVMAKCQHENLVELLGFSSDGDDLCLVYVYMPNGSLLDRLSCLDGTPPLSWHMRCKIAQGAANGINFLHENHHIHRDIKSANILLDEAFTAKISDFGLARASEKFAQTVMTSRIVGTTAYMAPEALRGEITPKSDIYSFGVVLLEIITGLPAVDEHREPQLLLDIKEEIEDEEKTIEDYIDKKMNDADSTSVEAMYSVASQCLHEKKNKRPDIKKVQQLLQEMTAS

T2 sequence (Q8N5C6 whole entry): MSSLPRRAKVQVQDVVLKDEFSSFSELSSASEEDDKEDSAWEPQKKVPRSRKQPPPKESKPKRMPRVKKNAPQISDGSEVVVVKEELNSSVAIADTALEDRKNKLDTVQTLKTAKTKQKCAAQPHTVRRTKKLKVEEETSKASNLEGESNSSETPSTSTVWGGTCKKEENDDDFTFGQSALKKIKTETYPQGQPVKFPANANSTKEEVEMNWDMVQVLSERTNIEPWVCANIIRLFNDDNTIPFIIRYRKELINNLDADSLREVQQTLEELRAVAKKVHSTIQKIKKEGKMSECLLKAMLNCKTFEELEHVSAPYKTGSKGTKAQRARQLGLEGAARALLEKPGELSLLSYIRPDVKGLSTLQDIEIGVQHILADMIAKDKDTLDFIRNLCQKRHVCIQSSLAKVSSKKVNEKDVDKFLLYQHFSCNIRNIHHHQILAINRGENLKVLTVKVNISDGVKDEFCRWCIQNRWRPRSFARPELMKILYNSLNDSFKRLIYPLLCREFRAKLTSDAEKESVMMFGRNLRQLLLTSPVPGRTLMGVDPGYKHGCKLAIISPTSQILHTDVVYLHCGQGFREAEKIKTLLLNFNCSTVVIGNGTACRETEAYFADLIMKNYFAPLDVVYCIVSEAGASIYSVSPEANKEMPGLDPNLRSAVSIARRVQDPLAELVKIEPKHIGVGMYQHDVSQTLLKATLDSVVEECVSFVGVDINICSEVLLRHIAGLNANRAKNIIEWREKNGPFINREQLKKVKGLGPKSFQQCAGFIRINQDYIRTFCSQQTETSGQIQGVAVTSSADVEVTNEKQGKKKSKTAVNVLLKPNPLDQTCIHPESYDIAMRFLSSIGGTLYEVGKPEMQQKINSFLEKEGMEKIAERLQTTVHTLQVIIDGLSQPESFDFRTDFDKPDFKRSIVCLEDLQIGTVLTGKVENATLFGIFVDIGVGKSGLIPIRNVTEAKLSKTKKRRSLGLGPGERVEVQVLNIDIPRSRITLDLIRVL
T4 sequence (P48506 whole entry): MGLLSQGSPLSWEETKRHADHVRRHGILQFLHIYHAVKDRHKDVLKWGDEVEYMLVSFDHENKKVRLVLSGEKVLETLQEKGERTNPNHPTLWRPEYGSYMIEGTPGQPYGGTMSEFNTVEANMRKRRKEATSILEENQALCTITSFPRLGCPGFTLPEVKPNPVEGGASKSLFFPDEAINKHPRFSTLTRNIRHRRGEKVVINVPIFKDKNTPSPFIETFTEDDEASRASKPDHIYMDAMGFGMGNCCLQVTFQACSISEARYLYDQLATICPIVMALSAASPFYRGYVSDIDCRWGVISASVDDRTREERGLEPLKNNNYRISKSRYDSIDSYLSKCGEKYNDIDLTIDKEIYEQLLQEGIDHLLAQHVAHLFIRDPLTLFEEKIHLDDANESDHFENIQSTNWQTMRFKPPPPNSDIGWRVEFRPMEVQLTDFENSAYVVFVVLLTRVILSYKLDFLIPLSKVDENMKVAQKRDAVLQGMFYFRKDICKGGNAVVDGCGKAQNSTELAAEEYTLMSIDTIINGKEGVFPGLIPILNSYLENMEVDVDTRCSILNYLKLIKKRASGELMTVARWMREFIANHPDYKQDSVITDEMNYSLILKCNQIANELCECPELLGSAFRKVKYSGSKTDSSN
T5 sequence (Q9H2U1 whole entry): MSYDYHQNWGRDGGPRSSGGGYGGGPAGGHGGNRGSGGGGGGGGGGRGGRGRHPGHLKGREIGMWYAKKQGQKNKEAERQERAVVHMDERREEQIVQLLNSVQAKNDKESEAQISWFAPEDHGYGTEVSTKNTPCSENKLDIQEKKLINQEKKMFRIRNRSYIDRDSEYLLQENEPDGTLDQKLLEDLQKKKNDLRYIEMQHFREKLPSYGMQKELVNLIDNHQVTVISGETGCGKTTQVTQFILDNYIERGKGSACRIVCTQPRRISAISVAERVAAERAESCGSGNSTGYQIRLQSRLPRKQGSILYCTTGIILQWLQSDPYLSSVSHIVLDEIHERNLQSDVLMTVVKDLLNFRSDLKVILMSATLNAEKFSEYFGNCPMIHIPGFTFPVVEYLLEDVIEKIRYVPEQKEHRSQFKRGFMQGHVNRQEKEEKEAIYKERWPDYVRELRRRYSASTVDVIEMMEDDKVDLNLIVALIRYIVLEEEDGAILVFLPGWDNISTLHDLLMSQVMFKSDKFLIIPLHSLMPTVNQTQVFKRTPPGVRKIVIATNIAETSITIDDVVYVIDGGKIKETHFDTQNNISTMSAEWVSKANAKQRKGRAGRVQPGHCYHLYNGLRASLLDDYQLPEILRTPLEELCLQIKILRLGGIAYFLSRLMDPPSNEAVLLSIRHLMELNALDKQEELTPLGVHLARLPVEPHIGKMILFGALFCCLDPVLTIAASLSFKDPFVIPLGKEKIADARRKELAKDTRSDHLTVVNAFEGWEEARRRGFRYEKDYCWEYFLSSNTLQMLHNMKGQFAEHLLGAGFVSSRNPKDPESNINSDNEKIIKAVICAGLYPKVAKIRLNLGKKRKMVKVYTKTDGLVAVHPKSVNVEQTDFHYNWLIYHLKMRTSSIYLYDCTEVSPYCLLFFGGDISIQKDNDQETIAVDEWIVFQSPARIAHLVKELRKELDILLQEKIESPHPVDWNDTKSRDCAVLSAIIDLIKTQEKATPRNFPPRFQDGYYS
T3 sequence (Q9H0W8 whole entry): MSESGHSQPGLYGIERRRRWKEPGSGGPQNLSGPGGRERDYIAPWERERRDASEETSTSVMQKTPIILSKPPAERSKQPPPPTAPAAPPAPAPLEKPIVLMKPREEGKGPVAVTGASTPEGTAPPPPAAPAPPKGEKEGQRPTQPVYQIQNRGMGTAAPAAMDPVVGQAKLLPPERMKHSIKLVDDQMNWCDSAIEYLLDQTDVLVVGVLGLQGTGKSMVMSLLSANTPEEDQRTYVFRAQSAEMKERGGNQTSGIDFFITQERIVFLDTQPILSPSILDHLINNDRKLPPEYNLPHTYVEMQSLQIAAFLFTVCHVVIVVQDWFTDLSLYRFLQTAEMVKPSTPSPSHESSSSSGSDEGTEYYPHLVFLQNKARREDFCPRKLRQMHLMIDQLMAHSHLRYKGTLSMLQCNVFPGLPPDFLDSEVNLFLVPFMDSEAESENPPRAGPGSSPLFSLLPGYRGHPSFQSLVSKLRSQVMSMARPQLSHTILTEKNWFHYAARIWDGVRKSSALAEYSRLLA
T1 sequence (Q02252 34-535): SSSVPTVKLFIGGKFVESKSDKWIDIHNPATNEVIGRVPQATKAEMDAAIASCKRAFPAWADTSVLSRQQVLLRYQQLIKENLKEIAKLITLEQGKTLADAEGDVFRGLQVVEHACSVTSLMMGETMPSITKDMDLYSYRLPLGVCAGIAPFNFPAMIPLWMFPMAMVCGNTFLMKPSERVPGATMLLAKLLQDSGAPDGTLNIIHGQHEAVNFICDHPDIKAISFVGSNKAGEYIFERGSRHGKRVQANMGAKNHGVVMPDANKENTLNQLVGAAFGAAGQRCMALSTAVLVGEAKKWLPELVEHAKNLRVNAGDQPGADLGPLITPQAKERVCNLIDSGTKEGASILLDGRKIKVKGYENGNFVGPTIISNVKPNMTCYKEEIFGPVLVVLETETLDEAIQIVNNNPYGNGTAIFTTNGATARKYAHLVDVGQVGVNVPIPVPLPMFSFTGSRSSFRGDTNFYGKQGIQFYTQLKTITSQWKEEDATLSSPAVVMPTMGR

SMILES: COC(=O)/C=C/CNC(=O)c1cc2c([nH]c1=O)CCCC2 [Compound 11a]
- ratio: mean ratio between control and competition samples, ALDH6A1 (ALDH6A1): -0.9838 log2
- ratio: mean ratio between control and competition samples, SRBD1 (SRBD1): -0.7897 log2
- ratio: mean ratio between control and competition samples, SMG9 (SMG9): -0.8383 log2
- ratio: mean ratio between control and competition samples, GCLC (GCLC): -0.8853 log2
- ratio: mean ratio between control and competition samples, DHX36 (DHX36): -0.8884 log2
- IC50 (IRAK4; 1 h preincubation, 6 nM IRAK4, 50 μM ATP): > 200 µM
- inhibition of IRAK4 substrate phosphorylation (IRAK4; concentrations up to 200 μM): no inhibition
